How the values were obtained:
[1] = test system: A549-ACE2 infected with SARS-CoV-2; assay: cell count relative to DMSO; higher = less toxic; conditions: 24 h
Caco-2 [2] = assay: cell viability relative to DMSO; higher = less toxic; conditions: 72 h
Calu-3 [3] = assay: as above; conditions: 72 h
HepG2 [4] = assay: as above; conditions: 72 h
U2OS [5] = assay: as above; conditions: 72 h
Vero E6 [6] = assay: as above; conditions: 72 h
[7] = test system: A549-ACE2 infected with SARS-CoV-2; assay: SARS-CoV-2 infection rate relative to DMSO; higher = more infection; conditions: 24 h
A549-ACE2 [8] = assay: phospholipidosis EC50; higher = less potent phospholipidosis inducer
A549-ACE2 [9] = assay: drug-induced phospholipidosis relative to tamoxifen; higher = more phospholipidosis
[10] = test system: A549-ACE2 infected with SARS-CoV-2; assay: morphology score (similarity to uninfected cells); higher = more like uninfected cells; conditions: 24 h
Caco-2 [11] = assay: relative viability EC50 (midpoint between 100% and the lowest measured viability); higher = less toxic; conditions: 72 h
HepG2 [12] = assay: as above; conditions: 72 h
U2OS [13] = assay: as above; conditions: 72 h
Vero E6 [14] = assay: as above; conditions: 72 h
Caco-2 [15] = assay: drug sensitivity score (DSS) for viability; higher = more toxic; extreme values may be limits of the assay; conditions: 72 h
Calu-3 [16] = assay: as above; conditions: 72 h
HepG2 [17] = assay: as above; conditions: 72 h
U2OS [18] = assay: as above; conditions: 72 h
Vero E6 [19] = assay: as above; conditions: 72 h
Calu-3 [20] = assay: relative viability EC50 (midpoint between 100% and the lowest measured viability); higher = less toxic; conditions: 72 h

C=CCN(C)CCCCCCOc1ccc(C(=O)c2ccc(Br)cc2)c(F)c1 [Ro-48-8071]
Conditions	SARS-CoV-2 infection rate [%]	cell count [%]	cell viability [%]	morphology score	phospholipidosis EC50 [µM]
A549-ACE2 [8], 24 h	–	–	–	–	3.35
A549-ACE2 [8], 48 h	–	–	–	–	4.65
A549-ACE2 [8], 72 h	–	–	–	–	5.61
Caco-2 [2], 1 nM	–	–	97.5	–	–
Caco-2 [2], 10 nM	–	–	101	–	–
Caco-2 [2], 100 nM	–	–	102	–	–
Caco-2 [2], 1000 nM	–	–	81.7	–	–
Caco-2 [2], 10000 nM	–	–	45.9	–	–
Calu-3 [3], 1 nM	–	–	95.1	–	–
Calu-3 [3], 10 nM	–	–	95.7	–	–
Calu-3 [3], 100 nM	–	–	97.4	–	–
Calu-3 [3], 1000 nM	–	–	99.7	–	–
Calu-3 [3], 10000 nM	–	–	55.3	–	–
HepG2 [4], 1 nM	–	–	104	–	–
HepG2 [4], 10 nM	–	–	98.3	–	–
HepG2 [4], 100 nM	–	–	92.1	–	–
HepG2 [4], 1000 nM	–	–	93.7	–	–
HepG2 [4], 10000 nM	–	–	34	–	–
U2OS [5], 1 nM	–	–	98.6	–	–
U2OS [5], 10 nM	–	–	102	–	–
U2OS [5], 100 nM	–	–	93.5	–	–
U2OS [5], 1000 nM	–	–	96	–	–
U2OS [5], 10000 nM	–	–	79	–	–
Vero E6 [6], 1 nM	–	–	104	–	–
Vero E6 [6], 10 nM	–	–	100	–	–
Vero E6 [6], 100 nM	–	–	100	–	–
Vero E6 [6], 1000 nM	–	–	94.6	–	–
Vero E6 [6], 10000 nM	–	–	84.5	–	–
[1], 0.3 µM	–	103	–	–	–
[1], 3 µM	–	114	–	–	–
[1], 10 µM	–	117	–	–	–
[1], 30 µM	–	70	–	–	–
[7], 0.3 µM	102	–	–	–	–
[7], 3 µM	59	–	–	–	–
[7], 10 µM	25	–	–	–	–
[7], 30 µM	38	–	–	–	–
[10], 0.3 µM	–	–	–	-0.04	–
[10], 3 µM	–	–	–	0.67	–
[10], 10 µM	–	–	–	0.73	–
[10], 30 µM	–	–	–	0.1	–

drug-induced phospholipidosis [%], A549-ACE2 [9]
Conditions	0.3 µM	0.833333 µM	3.33333 µM	6.66667 µM	10 µM	30 µM
24 h	2.62	7.33	44.1	86.2	90.2	82
48 h	5.45	7.84	36.4	96.4	115	–
72 h	4.46	5.92	27.7	95.3	127	–

Conditions	drug sensitivity score	relative viability EC50 [µM]
Caco-2 [11]	–	1.31
Caco-2 [15]	5.5	–
Calu-3 [16]	2.3	–
HepG2 [12]	–	2.38
HepG2 [17]	4.6	–
U2OS [13]	–	> 10
U2OS [18]	1.1	–
Vero E6 [14]	–	> 10
Vero E6 [19]	0.7	–

OC(CCN1CCCCC1)(c1ccccc1)C1CC2C=CC1C2 (configuration not stated) [biperiden]
Conditions	SARS-CoV-2 infection rate, [7] [%]	cell count, [1] [%]	cell viability, Caco-2 [2] [%]	cell viability, Calu-3 [3] [%]	cell viability, HepG2 [4] [%]	cell viability, U2OS [5] [%]	cell viability, Vero E6 [6] [%]	morphology score, [10]
1 nM	–	–	93.2	103	93.3	99.4	92.7	–
10 nM	–	–	96	108	108	101	95.8	–
100 nM	–	–	99	108	99.5	102	95.2	–
0.3 µM	106	100	–	–	–	–	–	-0.01
1000 nM	–	–	97.9	101	110	97	96.2	–
3 µM	76	107	–	–	–	–	–	0.49
10 µM	55	112	–	–	–	–	–	0.74
10000 nM	–	–	104	95.4	97.2	95.3	101	–
30 µM	44	113	–	–	–	–	–	0.76

drug-induced phospholipidosis [%], A549-ACE2 [9]
Conditions	0.3 µM	0.833333 µM	3.33333 µM	6.66667 µM	10 µM	30 µM
24 h	6.44	3.39	3.47	5.73	10.9	32.9
48 h	5.46	-0.33	0.38	9.63	13.4	30.6
72 h	8.44	0.683	2.98	6.62	5.63	27.3

Conditions	drug sensitivity score	relative viability EC50 [µM]
Caco-2 [11]	–	> 10
Caco-2 [15]	0	–
Calu-3 [16]	0	–
Calu-3 [20]	–	> 10
HepG2 [12]	–	> 10
HepG2 [17]	0	–
U2OS [13]	–	> 10
U2OS [18]	0	–
Vero E6 [14]	–	> 10
Vero E6 [19]	0	–

CC(C)Oc1ccc(-c2nc(-c3cccc4c3CC[C@@H]4NCCO)no2)cc1C#N [ozanimod]
Conditions	SARS-CoV-2 infection rate, [7] [%]	cell count, [1] [%]	cell viability, Caco-2 [2] [%]	cell viability, Calu-3 [3] [%]	cell viability, HepG2 [4] [%]	cell viability, U2OS [5] [%]	cell viability, Vero E6 [6] [%]	morphology score, [10]
1 nM	–	–	95.2	94.5	120	95.2	103	–
10 nM	–	–	75.2	87.2	101	105	96.1	–
0.1 µM	96	104	–	–	–	–	–	0.14
100 nM	–	–	69.7	93.3	106	94.9	102	–
0.3 µM	111	100	–	–	–	–	–	0.03
1 µM	91	100	–	–	–	–	–	0.33
1000 nM	–	–	77.6	96.6	100	97.8	103	–
3 µM	44	114	–	–	–	–	–	0.77
10000 nM	–	–	73	73.1	44.4	72.2	76.7	–

drug-induced phospholipidosis [%], A549-ACE2 [9]
Conditions	0.3 µM	0.833333 µM	3.33333 µM	6.66667 µM	10 µM
24 h	6.09	18	72.5	83.5	92.3
48 h	-8.87	1.18	67.1	90.1	96.7
72 h	-6.97	0.974	62.1	108	122

Conditions	drug sensitivity score	relative viability EC50 [µM]
Caco-2 [15]	12.1	–
Calu-3 [16]	1.6	–
HepG2 [12]	–	3.17
HepG2 [17]	3	–
U2OS [18]	1.5	–
Vero E6 [14]	–	> 10
Vero E6 [19]	0.6	–

CCN1CCC(n2cc(CNc3cc(Cl)c4ncc(C#N)c(Nc5ccc(F)c(Cl)c5)c4c3)nn2)CC1 [cot-inhibitor-2]
Conditions	SARS-CoV-2 infection rate, [7] [%]	cell count, [1] [%]	cell viability, Caco-2 [2] [%]	cell viability, Calu-3 [3] [%]	cell viability, HepG2 [4] [%]	cell viability, U2OS [5] [%]	cell viability, Vero E6 [6] [%]	morphology score, [10]
1 nM	–	–	105	110	102	102	95.7	–
10 nM	–	–	99.9	92	109	96.4	101	–
100 nM	–	–	93.3	111	91.3	97.4	101	–
0.3 µM	93	102	–	–	–	–	–	0.17
1000 nM	–	–	94.6	96.6	100	93.2	99.8	–
3 µM	47	112	–	–	–	–	–	0.77
10 µM	26	66	–	–	–	–	–	0.43
10000 nM	–	–	47.4	87	43.9	66	81.6	–

drug-induced phospholipidosis [%], A549-ACE2 [9]
Conditions	0.3 µM	0.833333 µM	3.33333 µM	6.66667 µM
24 h	-0.44	-4.12	-0.13	29.3
48 h	-2.64	-3.78	2.2	–
72 h	1.59	-0.868	0.286	–

Conditions	drug sensitivity score	relative viability EC50 [µM]
Caco-2 [11]	–	2.31
Caco-2 [15]	3.7	–
Calu-3 [16]	0.3	–
Calu-3 [20]	–	> 10
HepG2 [12]	–	3.19
HepG2 [17]	3	–
U2OS [18]	2.7	–
Vero E6 [14]	–	> 10
Vero E6 [19]	0.5	–

— the supplement of paper PMC13380429
